The test system of assay [1] is Mouse p-phenylquinone writhing. Description: Mouse p-phenylquinone writhing test. In kind it is in vivo, mouse (male Charles River). The note with it: p-phenylquinone 0.02% i.p. 20 min after dosing, animals completely protected in 8 min; for ED50: Mus musculus, sc, read-out: IN VIVO TESTS - ED50, Mouse p-phenylquinone writhing; for IN VIVO TESTS - ED50, Mouse p-phenylquinone writhing: s.c. The method, then:
(§1) Inhibition of contraction in electrically stimulated rabbit vas deferens indicate Kappa receptor agonism.
Writhing test (According to Siegmund et al., Proc. Soc. Exptl. Biol. 95, 729/1957)
Male Charles River mice, average weight 26 g, are randomly distributed into groups of 10 and are dosed subcutaneously with compounds under test, dissolved in isotonic saline (20 ml.Kg^-1). The experiments are carried out in the presence of positive and negative controls. 20 min after the mice are injected intraperitoneally with p-phenylquinone 0.02%, 10 ml.Kg^-1, maintained at 37° C. in a water bath. The mice are placed in a perspex compartmented observation box and observed for a period of 8 min after injection of p-phenylquinone. The dose-response curve is obtained by basing observation on the all or none response.

Another assay has as its system Mouse tail flick. As to the kind of experiment: Mouse tail flick test. In kind it is in vivo, mouse (male Charles River). The note with it: s.c., 30 min after dosing, mice doubling the initial reaction time; for ED50: Mus musculus, sc, 0.5 h, read-out: IN VIVO TESTS - ED50, Mouse tail flick. The method, then:
as §1
Tail-flick test (Modified from the procedure published by D'Amour et al., J. Pharm. Exptl. Ther. 72, 74/1941)
Male Charles River mice, average weight 26 g, are used. Selection is carried out before beginning of experiments: only mice whose reaction time is less than 8 sec are used. They are randomly distributed into groups of 10 and dosed with compounds under test, with positive and negative controls being included.
Compounds under test are administered subcutaneously in isotonic saline in a volume of 20 ml.Kg^-1. 30 min later mice are placed again under heat source (Socrel apparatus) and reaction time is recorded.
Analgesic activity of the test compound is expressed as the percent number of mice doubling the initial time within a group. [formula]

In assay [2] the target is T1, k (Kappa) opioid receptor (Cavia porcellus, UniProt P41144).
T1 construct: fresh guinea pig brain homogenate; from tissue; host or cells: guinea pig whole brain without cerebellum, washed membrane homogenate
T1 sequence (P41144 whole entry): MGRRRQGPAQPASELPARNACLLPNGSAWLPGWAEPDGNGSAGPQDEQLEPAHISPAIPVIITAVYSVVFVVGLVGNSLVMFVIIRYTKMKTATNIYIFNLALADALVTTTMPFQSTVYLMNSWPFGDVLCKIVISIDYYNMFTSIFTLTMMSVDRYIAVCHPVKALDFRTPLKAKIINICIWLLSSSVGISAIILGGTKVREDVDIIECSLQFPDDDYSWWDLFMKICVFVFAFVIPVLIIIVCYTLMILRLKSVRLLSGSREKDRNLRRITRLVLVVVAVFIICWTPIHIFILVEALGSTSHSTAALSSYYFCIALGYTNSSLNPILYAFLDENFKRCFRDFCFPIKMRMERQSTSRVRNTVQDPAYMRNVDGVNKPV
As to the kind of experiment: Radio receptor binding to k sites (tritiated Ethylketocyclazocine). Also on record: species or system guinea pig. The procedure: Radio receptor binding to μ and k sites is performed on fresh guinea pig brain homogenate prepared according to Kosterlitz.
(§2) […] brain without cerebellum is homogenized in 50 mM, Tris-buffer (pH 7.4 at 0° C.) and centrifuged at 49,000×g×10 min. The pellet is then resuspended in the same buffer, incubated at 37° C. for 45 min. and centrifuged again.
(§3) 1.9 ml of the final homogenate (1:100 in Tris-pH 7.4, 0° C.) is used for the binding assay.
The binding of tritiated Ethylketocyclazocine to brain homogenate is measured in the presence of 100 nanomolar D-Ala-D-LeuEnkephalin (DADLE) and 100 nanomolar DAGO, added to saturate the δ and μ opioid receptors respectively.
Final homogenate with solutions of the cold ligand and of the labelled ligand is incubated for 40 min at 25° C., filtered through Whatman GF/C glass filter discs and washed.
The radioactivity bound to the filters is counted by liquid scintillation spectrophotometry.
(§4) A concentration of radioligant near KD is used in the binding assays evaluating our compounds.

Another assay deals with T2, μ receptor (Cavia porcellus, UniProt A0ACM8Q262).
T2 construct: 3H-DAGO (DAMGO) displacement
T2 sequence (A0ACM8Q262 1-400): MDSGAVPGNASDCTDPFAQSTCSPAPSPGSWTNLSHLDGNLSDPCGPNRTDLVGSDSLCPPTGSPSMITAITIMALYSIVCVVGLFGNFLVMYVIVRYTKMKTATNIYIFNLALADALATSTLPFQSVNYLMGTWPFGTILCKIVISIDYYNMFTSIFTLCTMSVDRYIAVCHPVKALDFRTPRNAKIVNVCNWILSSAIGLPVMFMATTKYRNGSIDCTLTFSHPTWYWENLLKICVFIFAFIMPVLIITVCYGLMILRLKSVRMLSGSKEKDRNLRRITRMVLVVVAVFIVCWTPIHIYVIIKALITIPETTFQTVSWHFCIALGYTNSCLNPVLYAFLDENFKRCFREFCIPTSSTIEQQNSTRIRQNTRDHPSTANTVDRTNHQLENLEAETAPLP
Description: Radio receptor binding to μ sites (3H-DAGO). The note with it: guinea pig brain homogenate without cerebellum, 25° C., 40 min, pH 7.4. The procedure: Radio receptor binding to μ and k sites is performed on fresh guinea pig brain homogenate prepared according to Kosterlitz. (1981)
as §2, §3
Binding to μ sites (Magnan J., 1982):
^3 H [D-Ala^2, MePhe^4, Gly-ol^5 ] Enkephalin (^3 H-DAGO), an enkephalin analogue that binds selectively to μ receptor, is added to the biological substrate and incubated at 25° C. for 40 min., filtered through Whatman GF-C and washed with ice-cold Tris-buffer. The filters are then dried, solubilized in Filtercount and the radioactivity monitored. Non specific binding is determined in the presence of 10^-6 M Naloxone.
For the calculation of the kinetic parameters of the binding of labelled and unlabelled ligands, the equilibrium dissociation constant (KD), and the inhibition constant (Ki) and the maximum number of binding sites (B max) are determined from saturation curves and competition experiments (Hill 1910; Scatchard 1949; Cheng and Prusoff 1973; Gillan et al. 1980).
as §4

Structures can show the parent of a compound that is named as a salt. Where two headings read alike, the source gives them in different places. Bounds are passed on as bounds.

Usually ED50 stands for the dose that gives a 50% effect, or the effect in half of the subjects. For orientation: Ki means the dissociation constant of the complex between target and ligand, obtained from inhibition or displacement. Take `CN(C)C[C@@H]1Cc2ccccc2CN1C(=O)Cc1ccc(Cl)c(Cl)c1` [Example 6, (S)-2-(3,4-dichlorophenylacetyl)-3-dimethylaminomethyl-1,2,3,4-tetrahydroisoquinoline hydrochloride]: the ED50 came to 2.05 mg/kg in assay [1] and 1.65 mg/kg with Mouse tail flick. For the same molecule, the values for the Ki (in assay [2]; on μ receptor) were 11 nM and 1080 nM, respectively.

As to `O=C(Cc1ccc(Cl)c(Cl)c1)N1Cc2ccccc2C[C@@H]1CN1CCCC1` [Example 2, (R)-2-(3,4-dichlorophenyl)acetyl-3-(1-pyrrolidinyl)methyl-1-2,3,4-tetrahydroisoquinoline hydrochloride], in assay [1], the “IN VIVO TESTS - ED50, Mouse p-phenylquinone writhing” value is given as “N.E”. In the assay on Mouse tail flick, the “IN VIVO TESTS - ED50, Mouse tail flick” value is on record as “N.E”. Also, the Ki in assay [2] is greater than 1 nM; at μ receptor, 1420 nM.

In the case of `CN(C)CC1Cc2ccccc2CN1C(=O)Cc1ccc(Cl)c(Cl)c1` (racemic) [Example 4, (R,S)-2-(3,4-dichlorophenylacetyl)-3-dimethylaminomethyl-1,2,3,4-tetrahydroisoquinoline hydrochloride], the ED50 in assay [1] was 3.76 mg/kg; with Mouse tail flick, 7.2 mg/kg. In addition, the Ki is 17.5 nM in assay [2] and 1360 nM on μ receptor.

As for `O=C(Cc1ccc(Cl)c(Cl)c1)N1Cc2ccccc2C[C@H]1CN1CCCC1` [Example 3, (S)-2-(3,4-dichlorophenyl)acetyl-3-(1-pyrrolidinyl)methyl-1,2,3,4-tetrahydroisoquinoline hydrochloride], the ED50 in assay [1] is 1.43 mg/kg; with Mouse tail flick, 1.58 mg/kg. Also, the inhibition constant (Ki) was found to be 8.03 nM in assay [2] and 764 nM at μ receptor.

Consider `O=C(Cc1ccc(Cl)c(Cl)c1)N1Cc2ccccc2CC1CN1CCCC1` (racemic) [Example 1, (R,S)-2-(3,4-dichlorophenyl)acetyl-3-(1-pyrrolidinyl)methyl-1,2,3,4-tetrahydroisoquinoline hydrochloride], for which the figures for the median effective dose (ED50) (in assay [1]; in the assay on Mouse tail flick) were 2.64 mg/kg and 3.12 mg/kg, respectively. Besides, the Ki in assay [2] is 9.45 nM; at μ receptor, 960 nM.

As to `CN(C)C[C@H]1Cc2ccccc2CN1C(=O)Cc1ccc(Cl)c(Cl)c1` [Example 5, (R)-2-(3,4-dichlorophenyl)acetyl-3-dimethylaminomethyl-1,2,3,4-tetrahydroisoquinoline hydrochloride], in assay [1], the “IN VIVO TESTS - ED50, Mouse p-phenylquinone writhing” value is reported as “N.E”. Besides, in the assay on Mouse tail flick, the “IN VIVO TESTS - ED50, Mouse tail flick” value is “N.E”. The Ki in assay [2] (guinea pig brain homogenate without cerebellum, tritiated Ethylketocyclazocine with 100 nM DADLE and 100 nM DAGO, 25° C., 40 min, read-out: RECEPTOR BINDING - Ki, k) stood at 637 nM; on μ receptor, 2560 nM.
